Common to all, as to format: biochemical
One assay addresses T1, rh LOXL1 (Homo sapiens, UniProt Q08397).
T1 sequence (Q08397 96-574): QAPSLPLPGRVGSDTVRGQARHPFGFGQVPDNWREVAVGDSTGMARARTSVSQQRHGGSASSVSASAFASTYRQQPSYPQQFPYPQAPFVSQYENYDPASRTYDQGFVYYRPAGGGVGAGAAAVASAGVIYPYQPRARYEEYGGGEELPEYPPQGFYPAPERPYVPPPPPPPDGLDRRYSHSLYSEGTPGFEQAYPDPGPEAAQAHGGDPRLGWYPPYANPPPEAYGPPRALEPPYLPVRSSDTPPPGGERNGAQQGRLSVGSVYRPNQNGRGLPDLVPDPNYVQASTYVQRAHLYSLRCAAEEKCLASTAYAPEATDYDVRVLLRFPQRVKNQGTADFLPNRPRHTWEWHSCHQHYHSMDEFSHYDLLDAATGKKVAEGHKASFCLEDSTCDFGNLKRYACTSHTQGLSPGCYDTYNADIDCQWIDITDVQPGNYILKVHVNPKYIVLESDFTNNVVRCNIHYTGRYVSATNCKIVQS
The assay is described as follows: Jump dilution assay, rh LOXL1. Conditions: 10 × IC50 for 30 min, diluted 100x. The source says:
(§1) FIGURE 1 Characteristics of the activity‐based probe (ABP) PXS‐5878. (A) Chemical structure of PXS‐5878, with functional subunits denoted with different colours. The fluoroallylamine moiety (blue) was designed to interact with the lysine tyrosylquinone (LTQ) co‐factor within the lysyl oxidase active sites. An extended linker (green) was incorporated to provide optimal separation between the reactive functional group and the tag, avoiding unfavourable steric hindrance. Biotin was selected as a tag, with higher sensitivity found to be achieved using a double tag (red), resulting in PXS‐5878 as the preferred ABP. (B) Concentration‐dependent inhibition of recombinant human (rh) lysyl oxidase‐like 1‐4 (LOXL1‐4) and native bovine LOX in a standard Amplex Red assay with 30 min pre‐incubation; n = 3–4 independent experiments, standard error of mean (SEM). Native bovine LOX was used as a surrogate for human LOX as both enzymes have similar pharmacology for fluoroallylamines.[2], [9] (C) Irreversible nature of PXS‐5878 enzyme inhibition confirmed using a jump dilution assay. Enzyme (rh LOXL1, rh LOXL2 or LOXL3) was pre‐incubated with 10 × IC50 of PXS‐5878 for 30 min, then diluted 100x and remaining activity assessed by Amplex Red assay. […] Each value is an average of three experiments. […]

A further assay deals with T2, rh LOXL2 (Homo sapiens, UniProt Q9Y4K0).
T2 sequence (Q9Y4K0 26-774): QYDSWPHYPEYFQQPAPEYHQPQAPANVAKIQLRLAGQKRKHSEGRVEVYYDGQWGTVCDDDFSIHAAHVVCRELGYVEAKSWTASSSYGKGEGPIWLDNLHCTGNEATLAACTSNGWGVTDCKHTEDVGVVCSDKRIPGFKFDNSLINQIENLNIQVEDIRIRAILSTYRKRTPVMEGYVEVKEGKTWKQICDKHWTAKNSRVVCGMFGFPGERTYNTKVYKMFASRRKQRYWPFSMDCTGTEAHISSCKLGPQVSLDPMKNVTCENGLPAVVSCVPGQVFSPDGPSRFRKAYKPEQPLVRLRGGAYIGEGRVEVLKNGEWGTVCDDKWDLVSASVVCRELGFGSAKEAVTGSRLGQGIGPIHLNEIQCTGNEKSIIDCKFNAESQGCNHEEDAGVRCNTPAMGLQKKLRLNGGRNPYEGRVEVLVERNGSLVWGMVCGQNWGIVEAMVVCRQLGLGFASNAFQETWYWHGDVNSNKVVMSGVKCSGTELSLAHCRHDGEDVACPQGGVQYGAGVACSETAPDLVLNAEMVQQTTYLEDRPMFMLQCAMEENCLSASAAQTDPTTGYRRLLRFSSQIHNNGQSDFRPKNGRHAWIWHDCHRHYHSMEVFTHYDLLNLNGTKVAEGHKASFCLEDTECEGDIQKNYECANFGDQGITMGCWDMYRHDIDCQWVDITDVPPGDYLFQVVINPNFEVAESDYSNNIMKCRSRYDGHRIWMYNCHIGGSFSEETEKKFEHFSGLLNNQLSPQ
The assay is described as follows: Jump dilution assay, rh LOXL2.
Text: as §1, with “experiments. (D) Schematic representation of the assay development to detect lysyl oxidase activity by PXS‐5878 using a direct enzyme‐linked assay with lysyl oxidases as the target analyte. HRP: horseradish peroxidase; TMB: 3,3′,5,5′‐tetramethylbenzidine, a chromogenic substrate.” for “experiments.”
For fluoroallylamine-based inhibitors, replacement of fluorine with hydrogen (leading to the corresponding des-fluoro structures) results in a drop in potency and a switch from irreversible to reversible inhibition. […] (B) For PXS-5878, removal of the fluoro moiety in a simplified analogue results in a significant drop in potency for LOXL2, meaning (ir)reversibility cannot be accurately measured.

In a further assay the target is T3, LOXL3 (Homo sapiens, UniProt P58215).
T3 sequence (P58215 26-753): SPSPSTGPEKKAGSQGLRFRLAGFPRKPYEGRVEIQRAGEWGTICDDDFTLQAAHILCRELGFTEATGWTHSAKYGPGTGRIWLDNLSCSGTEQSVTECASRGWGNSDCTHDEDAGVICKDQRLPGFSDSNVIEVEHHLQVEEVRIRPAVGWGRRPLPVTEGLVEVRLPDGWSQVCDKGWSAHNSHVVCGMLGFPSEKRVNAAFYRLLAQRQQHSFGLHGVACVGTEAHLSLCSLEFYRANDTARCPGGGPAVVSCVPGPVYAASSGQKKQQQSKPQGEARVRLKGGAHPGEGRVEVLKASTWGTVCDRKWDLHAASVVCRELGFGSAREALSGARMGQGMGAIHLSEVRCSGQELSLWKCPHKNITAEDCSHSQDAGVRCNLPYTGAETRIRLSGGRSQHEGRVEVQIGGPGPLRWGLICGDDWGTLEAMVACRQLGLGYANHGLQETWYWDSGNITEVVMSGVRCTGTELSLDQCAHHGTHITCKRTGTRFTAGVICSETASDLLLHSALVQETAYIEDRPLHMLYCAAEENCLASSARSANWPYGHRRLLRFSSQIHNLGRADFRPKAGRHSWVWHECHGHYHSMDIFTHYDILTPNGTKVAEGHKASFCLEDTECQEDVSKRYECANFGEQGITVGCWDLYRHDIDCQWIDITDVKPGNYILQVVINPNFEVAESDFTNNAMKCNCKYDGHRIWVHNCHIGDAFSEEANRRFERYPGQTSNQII
Description: Jump dilution assay, LOXL3. Conditions: 10 × IC50 for 30 min, diluted 100x.
Text: as §1

Turning to `NC/C=C(\F)CS(=O)(=O)c1cccc(Cn2cc(-c3cc(OCCCc4cn(CCCCC[C@@H]5SC[C@@H]6NC(=O)N[C@@H]65)nn4)cc(OCCCc4cn(CCCCC[C@@H]5SC[C@@H]6NC(=O)N[C@@H]65)nn4)c3)nn2)c1` [PXS‐5878], the “Recovery of enzyme activity after jump dilution” value was “Little to no recovery in enzyme activity” at rh LOXL1; “Little to no recovery in enzyme activity” at rh LOXL2 (rh LOXL2, 10 × IC50 for 30 min, diluted 100x); “Little to no recovery in enzyme activity” at LOXL3.

Consider `CC(C)c1c(Cc2ccc(S(C)(=O)=O)nc2)c2ncccc2n1CC=CCN` [des‐fluoro‐PXS‐5338], for which, on rh LOXL2, the “Mode of inhibition (reversible/irreversible) of LOXL2” value was “reversible inhibitor”.

The values above are taken from publication PMC8571951, “An activity‐based bioprobe differentiates a novel small molecule inhibitor from a LOXL2 antibody and provides renewed promise for anti‐fibrotic therapeutic strategies” (Clinical and Translational Medicine, 2021).
